This passage reports T/C results from PubChem BioAssay AID328 (DTP/NCI, 2004).

Several values for one entry are separate records, joined by “and”; a condition that tells them apart may be missing. Identical values can stand only once. Toxic doses and inconclusive results are not listed.

For the assay, the system named is BDF1 mice, P388 leukemia ip, median survival T/C. The experiment in a line: NCI In Vivo Anticancer Drug Screen. Data for tumor model P388 Leukemia (intraperitoneal) in B6D2F1 (BDF1) mice. Particulars: endpoint: median survival time, higher = longer survival. In outline: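 Transplantable tumour in mice; compound vs vehicle dosing; survival scored; ratio of treated to control reported.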

For the compound `CCCCCCCCCCCCNCCCCCCCCCCCC`, the T/C reads like this: (dose: 1.0 mg/kg/injection, schedule: Q01DX010 (ip), vehicle: other) 100 % of control; (dose: 2.0 mg/kg/injection, schedule: Q01DX010 (ip), vehicle: other) 100 % of control; (dose: 3.0 mg/kg/injection, schedule: Q01DX010 (ip), vehicle: other) 90 % of control; (dose: 3.12 mg/kg/injection, schedule: Q01DX009 (ip), vehicle: Klucel (hydroxypropylcellulose) (HPC)) 100 % of control; (dose: 3.25 mg/kg/injection, schedule: Q01DX001 (ip), vehicle: Klucel (hydroxypropylcellulose) (HPC)) 100 % of control; (dose: 4.0 mg/kg/injection, schedule: Q01DX010 (ip), vehicle: other) 100 % of control. In addition, the T/C was 90 % of control (dose: 6.25 mg/kg/injection, schedule: Q01DX009 (ip), vehicle: Klucel (hydroxypropylcellulose) (HPC)); 100 % of control (dose: 6.5 mg/kg/injection, schedule: Q01DX001 (ip), vehicle: Klucel (hydroxypropylcellulose) (HPC)); 100 % of control (dose: 8.0 mg/kg/injection, schedule: Q01DX010 (ip), vehicle: water); 95 % of control (dose: 12.5 mg/kg/injection, schedule: Q01DX009 (ip), vehicle: Klucel (hydroxypropylcellulose) (HPC)); 100 % of control (dose: 13.0 mg/kg/injection, schedule: Q01DX001 (ip), vehicle: Klucel (hydroxypropylcellulose) (HPC)); 95 % of control (dose: 18.0 mg/kg/injection, schedule: Q01DX009 (ip), vehicle: Klucel (hydroxypropylcellulose) (HPC)). Also, the T/C runs as follows: (dose: 60.0 mg/kg/injection, schedule: Q01DX001 (ip), vehicle: Klucel (hydroxypropylcellulose) (HPC)) 100 % of control; (dose: 90.0 mg/kg/injection, schedule: Q01DX001 (ip), vehicle: Klucel (hydroxypropylcellulose) (HPC)) 100 % of control; (dose: 130.0 mg/kg/injection, schedule: Q01DX001 (ip), vehicle: Klucel (hydroxypropylcellulose) (HPC)) 105 % of control; (dose: 135.0 mg/kg/injection, schedule: Q01DX001 (ip), vehicle: Klucel (hydroxypropylcellulose) (HPC)) 104 % of control; (dose: 200.0 mg/kg/injection, schedule: Q01DX001 (ip), vehicle: Klucel (hydroxypropylcellulose) (HPC)) 115 % of control; (dose: 300.0 mg/kg/injection, schedule: Q01DX001 (ip), vehicle: Klucel (hydroxypropylcellulose) (HPC)) 110 % of control. The T/C (dose: 305.0 mg/kg/injection, schedule: Q01DX001 (ip), vehicle: Klucel (hydroxypropylcellulose) (HPC)) is 109 % of control.
For `CCO/C=C1\SC(=S)N(c2ccco2)C1=O`, the T/C was 104 % of control (dose: 5.56 mg/kg/injection, schedule: Q01DX009 (ip), vehicle: saline with Tween-80); 104 % of control (dose: 8.33 mg/kg/injection, schedule: Q01DX009 (ip), vehicle: saline with Tween-80); 108 % of control (dose: 12.5 mg/kg/injection, schedule: Q01DX009 (ip), vehicle: saline with Tween-80); 116 % of control (dose: 18.7 mg/kg/injection, schedule: Q01DX009 (ip), vehicle: saline with Tween-80); 150 % of control (dose: 22.0 mg/kg/injection, schedule: Q01DX009 (ip), vehicle: saline with Tween-80); 116 % of control (dose: 30.0 mg/kg/injection, schedule: Q01DX009 (ip), vehicle: saline). Moreover, the T/C by setting is: (dose: 44.0 mg/kg/injection, schedule: Q01DX009 (ip), vehicle: saline) 100 % of control; (dose: 50.0 mg/kg/injection, schedule: Q01DX009 (ip), vehicle: saline with Tween-80) 100 % of control; (dose: 66.0 mg/kg/injection, schedule: Q01DX009 (ip), vehicle: saline) 116 % of control; (dose: 100.0 mg/kg/injection, schedule: Q01DX009 (ip), vehicle: saline) 116 % of control.
Consider `[N-]=[N+]=NC(=O)c1cccs1`, for which the T/C (dose: 50.0 mg/kg/injection, schedule: Q01DX009 (ip), vehicle: saline + alcohol) is 99 % of control.
As to `O=NN(CCCl)C(=O)NCCCl`, the T/C was 111 % of control (dose: 0.5 mg/kg/injection, schedule: Q01DX001 (ip), vehicle: saline); 105 % of control (dose: 1.0 mg/kg/injection, schedule: Q01DX001 (ip), vehicle: saline); 172 % of control and 180 % of control (dose: 2.0 mg/kg/injection, schedule: Q01DX009 (ip), vehicle: other); 255 % of control and 260 % of control (dose: 3.13 mg/kg/injection, schedule: Q01DX010 (ip), vehicle: saline); 195 % of control (dose: 3.2 mg/kg/injection, schedule: Q01DX009 (ip), vehicle: saline + alcohol); 227 % of control and 276 % of control (dose: 4.0 mg/kg/injection, schedule: Q01DX009 (ip), vehicle: other). Also, the T/C runs as follows: (dose: 4.8 mg/kg/injection, schedule: Q01DX009 (ip), vehicle: saline + alcohol) 275 % of control and 276 % of control; (dose: 5.0 mg/kg/injection, schedule: Q01DX001 (ip), vehicle: saline) 164 % of control; (dose: 6.25 mg/kg/injection, schedule: Q01DX010 (ip), vehicle: saline) 300 % of control; (dose: 6.4 mg/kg/injection, schedule: Q01DX009 (ip), vehicle: saline + alcohol) 319 % of control and 532 % of control; (dose: 7.5 mg/kg/injection, schedule: Q01DX001 (ip), vehicle: saline + alcohol) 157 % of control and 200 % of control; (dose: 7.5 mg/kg/injection, schedule: Q01DX001 (ip), vehicle: saline) 211 % of control. In addition, the T/C (dose: 8.0 mg/kg/injection, schedule: Q01DX009 (ip), vehicle: other) is 270 % of control and 514 % of control; the T/C (dose: 10.0 mg/kg/injection, schedule: Q01DX001 (ip), vehicle: saline) was 212 % of control; the T/C (dose: 12.0 mg/kg/injection, schedule: Q01DX001 (ip), vehicle: Klucel (hydroxypropylcellulose) (HPC)) is 119 % of control; the T/C (dose: 15.0 mg/kg/injection, schedule: Q01DX001 (ip), vehicle: saline + alcohol) was 253 % of control and 176 % of control; the T/C (dose: 15.0 mg/kg/injection, schedule: Q01DX001 (ip), vehicle: saline) is 159 % of control; the T/C (dose: 16.0 mg/kg/injection, schedule: Q01DX001 (ip), vehicle: saline + alcohol) is 196 % of control. The T/C is 100 % of control (dose: 16.0 mg/kg/injection, schedule: Q01DX009 (ip), vehicle: other); 238 % of control and 154 % of control (dose: 20.0 mg/kg/injection, schedule: Q01DX001 (ip), vehicle: saline); 229 % of control (dose: 20.0 mg/kg/injection, schedule: Q#XHX024 (ip), vehicle: saline); 175 % of control (dose: 21.6 mg/kg/injection, schedule: Q01DX001 (ip), vehicle: other); 152 % of control (dose: 21.6 mg/kg/injection, schedule: Q01DX001 (ip), vehicle: saline + alcohol); 247 % of control and 564 % of control and 159 % of control (dose: 30.0 mg/kg/injection, schedule: Q01DX001 (ip), vehicle: saline). Also, the T/C (dose: 30.0 mg/kg/injection, schedule: Q#XHX024 (ip), vehicle: saline) is 546 % of control; the T/C (dose: 32.0 mg/kg/injection, schedule: Q01DX001 (ip), vehicle: saline + alcohol) was 225 % of control; the T/C (dose: 36.0 mg/kg/injection, schedule: Q01DX001 (ip), vehicle: other) was 236 % of control; the T/C (dose: 36.0 mg/kg/injection, schedule: Q01DX001 (ip), vehicle: saline + alcohol) was 499 % of control; the T/C (dose: 40.0 mg/kg/injection, schedule: Q01DX001 (ip), vehicle: saline) was 266 % of control; the T/C (dose: 60.0 mg/kg/injection, schedule: Q01DX001 (ip), vehicle: saline + alcohol) is 88 % of control. Further, the T/C (dose: 64.0 mg/kg/injection, schedule: Q01DX001 (ip), vehicle: saline + alcohol) is 281 % of control.
With `Cc1ccc(S(=O)(=O)N/N=C2/C(=N/NS(=O)(=O)c3ccc(C)cc3)C3CCC2C3)cc1`, the T/C was 105 % of control (dose: 50.0 mg/kg/injection, schedule: Q01DX009 (ip), vehicle: other); 96 % of control (dose: 100.0 mg/kg/injection, schedule: Q01DX009 (ip), vehicle: other); 95 % of control (dose: 200.0 mg/kg/injection, schedule: Q01DX009 (ip), vehicle: other).
With `Cc1ccc(-c2cc(-c3ccccc3)n(-c3ccccc3)n2)cc1`, the T/C (dose: 264.0 mg/kg/injection, schedule: Q04DX003 (ip), vehicle: Klucel (hydroxypropylcellulose) (HPC)) is 108 % of control and 109 % of control; the T/C (dose: 400.0 mg/kg/injection, schedule: Q04DX003 (ip), vehicle: Klucel (hydroxypropylcellulose) (HPC)) was 104 % of control and 116 % of control.
Turning to `O=C(Nc1ccc(F)cc1F)Oc1cccc2cccnc12`, the T/C is 104 % of control (dose: 50.0 mg/kg/injection, schedule: Q01DX009 (ip), vehicle: Klucel (hydroxypropylcellulose) (HPC)); 106 % of control (dose: 100.0 mg/kg/injection, schedule: Q01DX009 (ip), vehicle: Klucel (hydroxypropylcellulose) (HPC)); 113 % of control (dose: 200.0 mg/kg/injection, schedule: Q01DX009 (ip), vehicle: Klucel (hydroxypropylcellulose) (HPC)); 104 % of control (dose: 400.0 mg/kg/injection, schedule: Q01DX009 (ip), vehicle: Klucel (hydroxypropylcellulose) (HPC)).
